Measurements: ChEMBL document CHEMBL1687706, “Inhibition of human immunodeficiency virus type 1 replication in human cells by Debio-025, a novel cyclophilin binding agent” (Antimicrob Agents Chemother, 2008)
pIC50: −log10 of the molar value. Activity calls are given as the source filed them. The calls are words filed in the database; no cut-off is given here.

How the values were obtained:
[1] = system: Human immunodeficiency virus 1; experiment: Antiviral activity against HIV1 subtype D 92UG046 infected in human PBMC assessed as inhibition of viral replication by ELISA; assay type: functional, organism-based; conditions: Human immunodeficiency virus 1, subtype D 92UG046
cells = conditions: Mus musculus, PBMC
[2] = system: Human immunodeficiency virus 1; experiment: Antiviral activity against HIV1 subtype B 92BR014 infected in human PBMC assessed as inhibition of viral replication by ELISA; assay type: functional, organism-based; conditions: Human immunodeficiency virus 1, subtype B 92BR014
[3] = system: Human immunodeficiency virus 1; experiment: Antiviral activity against HIV1 subtype A 92RW016 infected in human PBMC assessed as inhibition of viral replication by ELISA; assay type: functional, organism-based; conditions: Human immunodeficiency virus 1, subtype A 92RW016
[4] = system: Human immunodeficiency virus 1; experiment: Antiviral activity against HIV1 subtype B Ba-L infected in human PBMC assessed as inhibition of viral replication by ELISA; assay type: functional, organism-based; conditions: Human immunodeficiency virus 1, subtype B Ba-L
[5] = system: Human immunodeficiency virus 1; experiment: Antiviral activity against HIV1 subtype O BCF01 infected in human PBMC assessed as inhibition of viral replication by ELISA; assay type: functional, organism-based; conditions: Human immunodeficiency virus 1, subtype O BCF01
Human alphaherpesvirus 2 = experiment: Antiviral activity against Herpes simplex virus 2 196 infected in human embryonic lung cells assessed as inhibition of viral replication; assay type: functional, organism-based; conditions: Human alphaherpesvirus 2, 196, lung
Human betaherpesvirus 5 [6] = experiment: Antiviral activity against Human cytomegalovirus AD169 infected in human embryonic lung cells assessed as reduction in viral yield; assay type: functional, organism-based; conditions: Human betaherpesvirus 5, AD169, lung
Jurkat = experiment: Immunosuppressive activity in human Jurkat cells assessed as inhibition of PHA-phorbol myristate acetate induced beta-galactosidase activity at 21.5 uM; assay type: functional, cell-based
Rattus norvegicus [7] = experiment: Immunosuppressive activity in Sprague-Dawley rat […] model assessed as percent T lymphocytes at 10 mg/kg, po administered once daily for 28 days by flow cytometry; assay type: functional
[8] = system: Human immunodeficiency virus 1; experiment: Antiviral activity against HIV1 subtype C 92BR025 infected in human PBMC assessed as inhibition of viral replication by ELISA; assay type: functional, organism-based; conditions: Human immunodeficiency virus 1, subtype C 92BR025
[9] = system: Human immunodeficiency virus 2; experiment: Antiviral activity against HIV-2 isolate CDC310319 infected in human PBMC assessed as inhibition of viral replication; assay type: functional, organism-based; conditions: Human immunodeficiency virus 2, isolate CDC310319
Human alphaherpesvirus 1 [10] = experiment: Antiviral activity against Herpes simplex virus 1 McIntyre infected in human embryonic lung cells assessed as inhibition of viral replication; assay type: functional, organism-based; conditions: Human alphaherpesvirus 1, McIntyre
[11] = Cytotoxicity against human Huh 5.2 cells; assay type: cell-based, Huh-5-2; conditions: read-out: TC50 (the source's name)
[12] = system: Human immunodeficiency virus 1; experiment: Antiviral activity against HIV1 subtype B SLKA infected in human PBMC assessed as inhibition of viral replication by ELISA; assay type: functional, organism-based; conditions: Human immunodeficiency virus 1, subtype B SLKA
Human betaherpesvirus 5 [13] = experiment: Antiviral activity against Human cytomegalovirus Davis infected in human embryonic lung cells assessed as reduction in viral yield; assay type: functional, organism-based; conditions: Human betaherpesvirus 5, Davis
[14] = system: Human papillomavirus type 16; experiment: Antiviral activity against HPV-16 infected in Caski cells assessed as inhibition of viral replication after 7 days; assay type: functional, Human papillomavirus 16
Human respirovirus 3 = experiment: Antiviral activity against Parainfluenza 3 infected in african green monkey Vero cells assessed as inhibition of viral replication; assay type: functional, organism-based; conditions: Human respirovirus 3, Vero
[15] = Antiviral activity against HPV-18 infected in human HeLa cells assessed as inhibition of viral replication after 7 days; assay type: functional; conditions: human papillomavirus 18, HeLa, 168 h; read-out: TC50 (the source's name)
[16] = system: Human immunodeficiency virus 1; experiment: Antiviral activity against HIV1 subtype B SF162 infected in human PBMC assessed as inhibition of viral replication by ELISA; assay type: functional; conditions: Human immunodeficiency virus 1, SF162 ISOLATE
[17] = Antiviral activity against Simian immunodeficiency virus-mac 251 infected in human PBMC assessed as inhibition of viral replication by RT activity; assay type: functional
[18] = system: Human immunodeficiency virus 1; experiment: Antiviral activity against HIV1 subtype B JR-CSF infected in human PBMC assessed as inhibition of viral replication by ELISA; assay type: functional; conditions: Human immunodeficiency virus 1, JRCSF ISOLATE
[19] = Cytotoxicity against MDCK cells; assay type: cell-based, Canis lupus familiaris; conditions: dog, read-out: TC50 (the source's name)
Human alphaherpesvirus 1 [20] = experiment: Antiviral activity against Herpes simplex virus 1 F infected in human embryonic lung cells assessed as inhibition of viral replication; assay type: functional, organism-based; conditions: Human alphaherpesvirus 1, strain F
Feline coronavirus = experiment: Antiviral activity against Feline coronavirus infected in CRFK assessed as inhibition of viral replication; assay type: functional, organism-based; conditions: Alphacoronavirus 1, CRFK
Rattus norvegicus [21] = experiment: Immunosuppressive activity in Sprague-Dawley rat […] model assessed as percent T lymphocytes at 25 mg/kg, po administered once daily for 28 days by flow cytometry; assay type: functional
[22] = system: Human immunodeficiency virus 2; experiment: Antiviral activity against HIV-2 isolate CDC310342 infected in human PBMC assessed as inhibition of viral replication; assay type: functional, organism-based; conditions: Human immunodeficiency virus 2, isolate CDC310342
[23] = system: Human immunodeficiency virus 1; experiment: Antiviral activity against LPV, APV, ATV, IDV, NFV, RTV, SQV, AZT, ddI, 3TC, d4T-resistant HIV-1 MDR3761 infected in human PBMC assessed as inhibition of viral replication by ELISA; assay type: functional, organism-based; conditions: Human immunodeficiency virus 1, MDR3761
Rattus norvegicus [24] = experiment: Immunosuppressive activity in Sprague-Dawley rat […] model assessed as IgM level at 50 mg/kg, po administered once daily for 28 days by ELISA; assay type: functional
Yellow fever virus = experiment: Antiviral activity against Yellow fever virus 17D infected in african green monkey Vero cells assessed as inhibition of viral replication; assay type: functional, cell-based
[25] = system: Human immunodeficiency virus 1; experiment: Antiviral activity against HIV1 subtype B TEKI infected in human PBMC assessed as inhibition of viral replication by ELISA; assay type: functional, organism-based; conditions: Human immunodeficiency virus 1, subtype B TEKI
[26] = system: Human immunodeficiency virus 1; experiment: Antiviral activity against HIV-1 NL4-3 infected in human TZB cells assessed as inhibitory effect on the completion of viral double stranded DNA at 0.5 to 2.5 uM by RT-PCR; assay type: functional, organism-based
[27] = Cytotoxicity against african green monkey Vero cells; assay type: cell-based; conditions: chlorocebus sabaeus, read-out: TC50 (the source's name)
[28] = system: Human immunodeficiency virus 1; experiment: Antiviral activity against HIV1 subtype F 93BR020 infected in human PBMC assessed as inhibition of viral replication by ELISA; assay type: functional, organism-based; conditions: Human immunodeficiency virus 1, subtype F 93BR020
Rattus norvegicus [29] = experiment: Immunosuppressive activity in Sprague-Dawley rat […] model assessed as percent T-helper cells at 10 mg/kg, po administered once daily for 28 days by flow cytometry; assay type: functional
[30] = system: Human immunodeficiency virus 1; experiment: Antiviral activity against HIV1 subtype B NL4-3 infected in human PBMC assessed as inhibition of viral replication by ELISA; assay type: functional, organism-based; conditions: Human immunodeficiency virus 1, subtype B NL4-3
[31] = system: Human immunodeficiency virus 1; experiment: Antiviral activity against HIV-1 NL4-3 infected in human TZB cells assessed as inhibition of viral entry at 0.5 to 2.5 uM after 2 hrs by RT-PCR; assay type: functional, organism-based
Rattus norvegicus [32] = experiment: Immunosuppressive activity in Sprague-Dawley rat KHL model assessed as percent cytotoxic T cells at 50 mg/kg, po administered once daily for 28 days by flow cytometry; assay type: functional, T-cell
Influenza A virus = experiment: Antiviral activity against Influenza A virus H3N2 infected in MDCK cells assessed as inhibition of viral replication; assay type: functional, organism-based

For `C/C=C/C[C@@H](C)[C@@H](O)[C@H]1C(=O)N[C@@H](CC)C(=O)N(C)[C@H](C)C(=O)N(CC)[C@@H](C(C)C)C(=O)N[C@@H](C(C)C)C(=O)N(C)[C@@H](CC(C)C)C(=O)N[C@@H](C)C(=O)N[C@H](C)C(=O)N(C)[C@@H](CC(C)C)C(=O)N(C)[C@@H](CC(C)C)C(=O)N(C)[C@@H](C(C)C)C(=O)N1C` [ALISPORIVIR], the pIC50 [1] was 8.00, the pIC50 (cells) was 6.09 and the pIC50 [2] was 5.25. For the same molecule, the pIC50 [3] was 8.10, the pIC50 [4] was 5.45 and the pIC50 [5] was 5.20. For the same molecule, the pIC50 (Human alphaherpesvirus 2) was under 4.60, the pIC50 (Human betaherpesvirus 5 [6]) was 5.05 and the inhibition (Jurkat) was “Active”. For the same molecule, the Activity (Rattus norvegicus [7]) was 52.4%, the pIC50 [8] was 7.82 and the pIC50 [9] was 4.98. The pIC50 (Human alphaherpesvirus 1 [10]) was under 4.60, the CC50 [11] was 22 µM and the pIC50 [12] was 7.60. The pIC50 (Human betaherpesvirus 5 [13]) was 5.21, the TC50 [14] was 0.6 µM and the pIC50 (Human respirovirus 3) was under 4.60. For the same molecule, the CC50 [15] was 3.3 µM, the pIC50 [16] was 7.82 and the pIC50 [17] was 5.08. It also gave a pIC50 [18] of 7.82, a CC50 [19] of 9.9 µM and a pIC50 (Human alphaherpesvirus 1 [20]) of under 4.60. For the same molecule, the pIC50 (Feline coronavirus) was 5.66, the Activity (Rattus norvegicus [21]) was 53.4% and the pIC50 [22] was 7.24. It also gave a pIC50 [23] of 6.80, a deltaA (Rattus norvegicus [24]) of 0.67 and a pIC50 (Yellow fever virus) of under 4.78. The pIC50 [25] was 5.36, the inhibition [26] was “Active” and the CC50 [27] was 16.6 µM. The pIC50 [28] was 5.20, the Activity (Rattus norvegicus [29]) was 29.8% and the pIC50 [30] was 8.00. For the same molecule, the inhibition [31] was “inactive”, the Activity (Rattus norvegicus [32]) was 16.1% and the pIC50 (Influenza A virus) was under 5.00.
